Reference: patent publication US12582653B2, “Method for treating idiopathic pulmonary fibrosis” (BEIJING TIDE PHARMACEUTICAL CO., LTD., priority 2020, dated 2026)

Tests used:
[1] = test system: BLM-induced mouse IPF model; assay: BLM-induced mouse IPF model (Example 2); type: in vivo; details: for up-regulation of TIMP-1 mRNA expression in the lung tissue induced by bleomycin / up-regulation of COL1A1 mRNA expression in the lung tissue induced by bleomycin: real-time fluorescent quantitative PCR, β-actin reference; for up-regulation of TIMP-1 mRNA expression in the lung tissue induced by bleomycin: FIG. 5A; for up-regulation of COL1A1 mRNA expression in the lung tissue induced by bleomycin: FIG. 5B
Protocol: 60 C57BL/6 mice (purchased from SLAC, Shanghai) were adaptively fed for 1 week, and 50 animals were randomly selected. 3 mg/kg of bleomycin (BLM, purchased from SIGMA, #SIGMA-P9564) was administered through intratracheal (IT) injection to the mice to establish the IPF animal model. The remaining 10 animals were injected with physiological saline at a volume same as the injected BLM, and served as the normal group (N=10). The day of the injection of bleomycin was set as day 0 (DO); on day 6, the animals were randomly divided into 4 groups according to body weight: vehicle group (N=14), compound 007 administration group (N=12), compound 128 administration group (N=12), and positive control pirfenidone (purchased from SIGMA, #SIGMA-P2116) administration group (N=12).
The animals in each group were administered on days 8-21: the animals in the normal group and vehicle group were intragastrically administered with vehicle 1 (vehicle 1: 20% PEG 400+5% Tween 80+75% ddH2O), the animals in the compound 007 administration group were intragastrically administered with compound 007 (formulated with vehicle 1), the animals in the compound 128 administration group were intragastrically administered with compound 128 (formulated with vehicle 1), and the animals in the Pirfenidone administration group were intragastrically administered with pirfenidone (vehicle 2: 0.2% Methyl cellulose+0.5% Tween 80+99.3% ddH2O).
The body weight and its changes were recorded daily (the calculation formula for the body weight change on day 21: Body weight change on day 21=Body weight on day 21—Body weight on day 0), and the results are shown in FIGS. 1A and 1B.
The animals were euthanized 2 hours after the administration on day 21, and the alveolar lavage fluid was collected for white blood cell (WBC) counting. According to FIG. 3, there was no significant difference in the total white blood cell count in the alveolar lavage fluid of the animals in each administration group.
The left lung of the animals was fixed for histopathological examination, and the Ashcroft score of lung injury was performed by Masson Trichome staining. The scoring standard is as reported in Ashcroft T et al., Journal of clinical pathology, 1988. After 100 times magnification, each successive field was scored (ranging from 0 (normal lung)) to 8 (total fibrous obliteration within the field).
The mRNA levels of lung tissue fibrosis-associated protein collagen 1A1 (COL1A1) and tissue inhibitor of metal matrix protein 1 (TIMP-1) in the lung tissue after the administration was detected by a real-time fluorescent quantitative PCR method. Specifically, the lung tissue fragments were transferred to a centrifuge tube containing 1 mL of TRIzol reagent (Invitrogen, catalog No. 15596018). The lung tissue was ground at low temperature by a tissue grinder. Total RNA in cells was extracted. TransScript All-in-One First-Strand cDNA Synthesis SuperMix for qPCR (One-Step gDNA Removal) (TransGen, catalog No. AT341-02) kit was used for reverse transcription synthesis of cDNA. The mRNA expression changes of COL1A1 and TIMP-1 in the lung tissue was detected by a fluorescence quantitative PCR method.
In the real-time fluorescent quantitative PCR method, β-actin gene was used as the internal reference gene to normalize the data. All primer sequences were from the PrimerBank website, ID No.: 34328108a1 (COL1A1 primer), 6755795a1 (TIMP-1 primer) and 6671509a1 (β-actin primer). All of the 3 primers were synthesized by Invitrogen.

[2] = test system: BLM-induced mouse IPF model; assay: BLM-induced mouse IPF model, different doses (Example 3); type: in vivo, C57BL/6J mice
Protocol: After adaptive feeding, C57BL/6J mice were randomly divided into 2 groups according to body weight: in one group, 15 animals were administered with 50 μL physiological saline through intratracheal injection; and in another group, 90 animals were administered with 50 μL bleomycin (2.5 mg/kg) through intratracheal injection to establish the IPF model. On Day 7 after the establishment of the animal model, animals were randomly grouped according to the weight change (the difference between the weight on Day 7 after the establishment of the model and the day when the model was established). Drugs were administered for 14 consecutive days from the eighth day after the establishment of the animal model. […] The bronchoalveolar lavage fluid (BALF) was collected for white blood cell count. The left lung of the animals was fixed for preparing histopathological slide. H&E and Masson Trichome staining were performed to score the degree of lung injury and fibrosis. Pulmonary fibrosis scoring standard was according to “Standardized quantification of pulmonary fibrosis in histological samples”; lung tissue injury grade score is 0-16, mainly evaluated from four aspects including inflammatory cell infiltration (0-4), hemorrhage (0-4), interstitial and alveolar edema (0-4) and alveolar septum thickness (0-4). A higher score indicate a higher degree of lung tissue injury.

With Cn1c(C(=O)N2CC(F)(F)C2)cc2ccc(-c3nccc(Nc4ccc(-c5cn[nH]c5)cc4)n3)cc21 [Compound 007] the “survival rate of the animals at the end of the test” value ([1]; 100 mg/kg orally once a day, 14 days (days 8-21), FIG. 2) was “significantly higher”, the “collagen accumulation in lung and degree of lung fibrosis (Ashcroft score, Masson Trichome staining)” value ([1]; 100 mg/kg orally once a day, 14 days, FIGS. 4A and 4B) was “significantly reduced” and the “therapeutic effect on lung fibrosis compared with pirfenidone and compound 128” value ([1]; 007 and 128 at 100 mg/kg once a day, pirfenidone 90 mg/kg twice a day, FIGS. 4A and 4B) was “significantly better than that of pirfenidone and compound 128”. The “up-regulation of TIMP-1 mRNA expression in the lung tissue induced by bleomycin” value [1] was “significantly inhibited”, the “up-regulation of COL1A1 mRNA expression in the lung tissue induced by bleomycin” value [1] was “significantly inhibited” and the “therapeutic effects compared with pirfenidone and nintedanib” value ([2]; 30 mpk orally once a day, pirfenidone 90 mg/kg twice a day, nintedanib 30 mg/kg once a day) was “equivalent to those of pirfenidone and nintedanib”. For the same compound, the “therapeutic effects compared with pirfenidone and nintedanib” value ([2]; 100 mpk orally once a day, pirfenidone 90 mg/kg twice a day, nintedanib 30 mg/kg once a day) was “equivalent to those of pirfenidone and nintedanib”, the “lung injury and fibrosis degree improvements compared with pirfenidone and nintedanib” value ([2]; 300 mpk orally once a day, pirfenidone 90 mg/kg twice a day, nintedanib 30 mg/kg once a day) was “superior to pirfenidone and nintedanib” and the “lung injury (H&E score 0-16)” value ([2]; compared with the model group, FIGS. 7A and 7B) was “significantly improved”. For the same compound, the “fibrosis degree (Masson Trichome score)” value ([2]; compared with the model group, FIGS. 8A and 8B) was “significantly improved” and the “infiltration of white blood cells in the lung (BALF white blood cell count)” value ([2]; compared with the model group, orally once a day, 14 days, FIG. 6) was “significantly reduce”.

For Cc1ccc(=O)n(-c2ccccc2)c1 [Pirfenidone, reference compound], the “up-regulation of TIMP-1 mRNA expression in the lung tissue induced by bleomycin” value [1] was “moderate inhibitory effect without statistic difference” and the “up-regulation of COL1A1 mRNA expression in the lung tissue induced by bleomycin” value [1] was “significantly inhibited”.
